# Reference: patent US20260060961A1, “SUBSTITUTED HETEROCYCLES AS RAS INHIBITORS” (Jazz Pharmaceuticals Ireland Limited, priority 2022, published 2026)
# Target: Recombinant human KRAS protein containing the G12C amino acid substitution (Homo sapiens (Human), UniProt P01116, G12C)
# Test: HTRF nucleotide exchange assay, KRAS G12C
# Assay type: biochemical
# Settings: 180 minute incubation with compound at room temperature; at least two independent replicates; read-out: KRAS G12C HTRF NEA IC50
# Experimental: The capacity of compounds to bind KRAS G12C and KRAS wildtype was quantified using a HTRF nucleotide exchange assay. Recombinant human KRAS protein (5 nM; aa1-188 KRAS WT or KRAS containing the G12C amino acid substitution, an N-terminal 6×His-tag and leader sequence), and 2 nM Europium-labeled anti-6×His antibody were mixed in assay buffer (10 mM HEPES pH7.3, 75 mM NaCl, 5 mM MgCl2, 0.05% BSA, 0.0025% NP-40 and 100 mM KF) with various concentrations of compound in a 384-well plate and a volume of 5 μL. After a 180 minute incubation at room temperature, 5 μl of 200 nM EDA-GTP-DY647P1 diluted in assay buffer was added to the plate. Following 30-minute incubation at room temperature, time-resolved fluorescence was measured on a PerkinElmer Envision plate reader. DMSO (0.3%) and unlabeled GDP (1 μM) or equivalent tool compound were used to generate the Max and Min assay signals, respectively. Data was analysed using a four-parameter logistic model to calculate IC50 values, with at least two independent replicates were performed for each compound.
# Recombinant human KRAS protein containing the G12C amino acid substitution, sequence (P01116 other isoform, or with tags, fused parts or gaps G12C): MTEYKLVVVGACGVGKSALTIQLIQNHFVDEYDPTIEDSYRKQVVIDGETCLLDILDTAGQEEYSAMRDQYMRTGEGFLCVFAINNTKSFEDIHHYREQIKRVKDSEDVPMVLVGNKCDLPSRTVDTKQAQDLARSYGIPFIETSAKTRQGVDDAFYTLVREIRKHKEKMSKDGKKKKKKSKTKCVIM
row,IC50 [µM],Compound
1,1 to 10,"C=CC(=O)N1CC2(CC(c3nc(-c4ccccc4)c(-c4c(C)ccc5[nH]ncc45)n3C)C2)C1 [Example 2, 1-[6-[1-methyl-5-(5-methyl-1H-indazol-4-yl)-4-phenyl-imidazol-2-yl]-2-azaspiro[3.3]heptan-2-yl]prop-2-en-1-one]"
2,≤ 1,"C=CC(=O)N1CC2(CC(c3nc(-c4ccc5c(cnn5C)c4)c(-c4cc(O)ccc4C(F)(F)F)n3C)C2)C1 [Example 39, 1-[6-[5-[5-hydroxy-2-(trifluoromethyl)phenyl]-1-methyl-4-(1-methylindazol-5-yl)imidazol-2-yl]-2-azaspiro[3.3]heptan-2-yl]prop-2-en-1-one]"
3,≥ 10,"C=CC(=O)N1CC2(CC(c3nc(-c4cnn(CCN5CCOCC5)c4)c(-c4c(C)ccc5[nH]ncc45)n3C)C2)C1 [Example 10, 1-[6-[1-methyl-5-(5-methyl-1H-indazol-4-yl)-4-[1-(2-morpholinoethyl)pyrazol-4-yl]imidazol-2-yl]-2-azaspiro[3.3]heptan-2-yl]prop-2-en-1-one]"
4,≥ 10,"C=CC(=O)N1CC2(CC(c3nc(-c4cn(C)nc4C)c(-c4c(C)ccc5[nH]ncc45)n3C)C2)C1 [Example 12, 1-[6-[4-(1,3-dimethylpyrazol-4-yl)-1-methyl-5-(5-methyl-1H-indazol-4-yl)imidazol-2-yl]-2-azaspiro[3.3]heptan-2-yl]prop-2-en-1-one]"
5,1 to 10,"C=CC(=O)N1CC2(CC(c3nc(-c4ccc5c(cnn5C)c4C)c(-c4c(C)ccc5[nH]ncc45)n3C)C2)C1 [Example 11, 1-[6-[4-(1,4-dimethylindazol-5-yl)-1-methyl-5-(5-methyl-1H-indazol-4-yl)imidazol-2-yl]-2-azaspiro[3.3]heptan-2-yl]prop-2-en-1-one]"
6,1 to 10,"C=CC(=O)N1CC2(CC(c3nc(-c4ccc(C(=O)NCCN(C)C)cc4)c(-c4c(C)ccc5[nH]ncc45)n3C)C2)C1 [Example 22, N-[2-(dimethylamino)ethyl]-4-[1-methyl-5-(5-methyl-1H-indazol-4-yl)-2-(2-prop-2-enoyl-2-azaspiro[3.3]heptan-6-yl)imidazol-4-yl]benzamide]"
7,≥ 10,"C=CC(=O)N1CC2(CC(c3nc(-c4cccnc4)c(-c4c(C)ccc5[nH]ncc45)n3C)C2)C1 [Example 3, 1-[6-[1-methyl-5-(5-methyl-1H-indazol-4-yl)-4-(3-pyridyl)imidazol-2-yl]-2-azaspiro[3.3]heptan-2-yl]prop-2-en-1-one]"
8,≤ 1,"C=CC(=O)N1CC2(CC(c3nc(-c4ccc5c(cnn5C)c4)c(-c4c(C)c(C)cc5[nH]ncc45)n3C)C2)C1 [Example 38, 1-[6-[5-(5,6-dimethyl-1H-indazol-4-yl)-1-methyl-4-(1-methylindazol-5-yl)imidazol-2-yl]-2-azaspiro[3.3]heptan-2-yl]prop-2-en-1-one]"
9,1 to 10,"C=CC(=O)N1CC2(CC(c3nc(-c4ccc(C(=O)NCC(F)(F)F)c(OC)c4)c(-c4c(C)ccc5[nH]ncc45)n3C)C2)C1 [Example 23, 2-methoxy-4-[1-methyl-5-(5-methyl-1H-indazol-4-yl)-2-(2-prop-2-enoyl-2-azaspiro[3.3]heptan-6-yl)95midazole-4-yl]-N-(2,2,2-trifluoroethyl)benzamide]"
10,≥ 10,"C=CC(=O)N1CC2(CC(c3nc(-c4cnn(CC)c4)c(-c4c(C)ccc5[nH]ncc45)n3C)C2)C1 [Example 13, 1-[6-[4-(1-ethylpyrazol-4-yl)-1-methyl-5-(5-methyl-1H-indazol-4-yl)imidazol-2-yl]-2-azaspiro[3.3]heptan-2-yl]prop-2-en-1-one]"
11,≥ 10,"C=CC(=O)N1CC2(CC(c3nc(-c4c(C)ccc5[nH]ncc45)c(-c4ccc5c(cnn5C)c4)n3C)C2)C1 [Example 25, 1-[6-[1-methyl-5-(1-methylindazol-5-yl)-4-(5-methyl-1H-indazol-4-yl)imidazol-2-yl]-2-azaspiro[3.3]heptan-2-yl]prop-2-en-1-one]"
12,≤ 1,"C=CC(=O)N1CC2(CC(c3nc(-c4ccc(N5CCOCC5)cc4)c(-c4cc(O)cc5ccccc45)n3C)C2)C1 [Example 27, 1-[6-[5-(3-hydroxy-1-naphthyl)-1-methyl-4-(4-morpholinophenyl)imidazol-2-yl]-2-azaspiro[3.3]heptan-2-yl]prop-2-en-1-one]"
13,1 to 10,"C=CC(=O)N1CC2(CC(c3nc(-c4ccc5c(cnn5C)c4)c(-c4cc(C#N)cc5[nH]ncc45)n3C)C2)C1 [Example 40, 4-[3-methyl-5-(1-methylindazol-5-yl)-2-(2-prop-2-enoyl-2-azaspiro[3.3]heptan-6-yl)imidazol-4-yl]-1H-indazole-6-carbonitrile]"
14,≤ 1,"C=CC(=O)N1CC2(CC(c3nc(-c4ccc5c(cnn5C)c4)c(-c4c(C)ccc5[nH]ncc45)n3C)C2)C1 [Example 1, 1-[6-[1-methyl-4-(1-methylindazol-5-yl)-5-(5-methyl-1H-indazol-4-yl)imidazol-2-yl]-2-azaspiro[3.3]heptan-2-yl]prop-2-en-1-one]"
15,1 to 10,"C=CC(=O)N1CC2(CC(c3nc(-c4ccc5ocnc5c4)c(-c4c(C)ccc5[nH]ncc45)n3C)C2)C1 [Example 17, 1-[6-[4-(1,3-benzoxazol-5-yl)-1-methyl-5-(5-methyl-1H-indazol-4-yl)imidazol-2-yl]-2-azaspiro[3.3]heptan-2-yl]prop-2-en-1-one]"
16,≤ 1,"C=CC(=O)N1CC2(CC(c3nc(-c4ccc5c(cnn5C)c4)c(-c4cc(O)cc5ccccc45)n3C)C2)C1 [Example 26, 1-[6-[5-(3-hydroxy-1-naphthyl)-1-methyl-4-(1-methylindazol-5-yl)imidazol-2-yl]-2-azaspiro[3.3]heptan-2-yl]prop-2-en-1-one]"
17,1 to 10,"C=CC(=O)N1CC2(CC(c3nc(-c4cccc(N5CCOCC5)c4)c(-c4c(C)ccc5[nH]ncc45)n3C)C2)C1 [Example 6, 1-[6-[1-methyl-5-(5-methyl-1H-indazol-4-yl)-4-(3-morpholinophenyl)imidazol-2-yl]-2-azaspiro[3.3]heptan-2-yl]prop-2-en-1-one]"
